Pest or weed control and melting point data for six compounds are collected here from patent US8722578B2, “Spiroheterocyclic pyrrolidinedione herbicidal compositions” (Syngenta Participations AG, priority 2008, dated 2014).

The structures appear in SMILES notation.

Data set [1] relates to Avena fatua (AVEFA). The experiment in a line: Example B pre-emergence herbicidal activity, glasshouse pot test. It counts as in vivo. The following applies: 312 h, first table (headed Post-Emergence, taken as pre-emergence), evaluated after 13 days, read-out: AVEFA activity (100=total damage to plant; 0=no damage to plant); for pest or weed control at 250 g/ha: rate 250 g/ha; for pest or weed control at 1000 g/ha: rate 1000 g/ha. The method, then:
(§1) Seeds of a variety of test species are sown in standard soil in pots. After cultivation for one day (pre-emergence) or after 8 days cultivation (post-emergence) under controlled conditions in a glasshouse (at 24/16° C., day/night; 14 hours light; 65% humidity), the plants are sprayed with an aqueous spray solution derived from the formulation of the technical active ingredient in acetone/water (50:50) solution containing 0.5% Tween 20 (polyoxyethelyene sorbitan monolaurate, CAS RN 9005-64-5). The test plants are then grown in a glasshouse under controlled conditions in a glasshouse (at 24/16° C., day/night; 14 hours light; 65% humidity) and watered twice daily. After 13 days for pre and post-emergence, the test is evaluated (100=total damage to plant; 0=no damage to plant). Test Plants: Setaria faberi (SETFA), Alopecurus myosuroides (ALOMY), Echinochloa crus-galli (ECHCG), Avena fatua (AVEFA)

Data set [2] concerns Echinochloa crus-galli (ECHCG). The data set is described as above. It counts as in vivo. The settings on record: 312 h, first table (headed Post-Emergence, taken as pre-emergence), evaluated after 13 days, read-out: ECHCG activity (100=total damage to plant; 0=no damage to plant); for pest or weed control at 250 g/ha: rate 250 g/ha; for pest or weed control at 1000 g/ha: rate 1000 g/ha. The method, then:
as §1

Data set [3] concerns Setaria faberi (SETFA). The description is as above. It counts as in vivo. The settings on record: 312 h, first table (headed Post-Emergence, taken as pre-emergence), evaluated after 13 days, read-out: SETFA activity (100=total damage to plant; 0=no damage to plant); for pest or weed control at 250 g/ha: rate 250 g/ha; for pest or weed control at 1000 g/ha: rate 1000 g/ha. The method, then:
as §1

Data set [4] deals with Alopecurus myosuroides (ALOMY). The description is as above. It counts as in vivo. The settings on record: 312 h, first table (headed Post-Emergence, taken as pre-emergence), evaluated after 13 days, read-out: ALOMY activity (100=total damage to plant; 0=no damage to plant); for pest or weed control at 250 g/ha: rate 250 g/ha; for pest or weed control at 1000 g/ha: rate 1000 g/ha. The method, then: as §1

Data set [5] concerns Avena fatua (AVEFA). In words: Example B post-emergence herbicidal activity, glasshouse pot test. Type of data set: in vivo. The settings on record: 312 h, evaluated after 13 days, read-out: AVEFA post-emergence activity (100=total damage to plant; 0=no damage to plant); for pest or weed control at 250 g/ha: rate 250 g/ha; for pest or weed control at 1000 g/ha: rate 1000 g/ha. The protocol:
as §1

The subject of data set [6] is Echinochloa crus-galli (ECHCG). Described as above. It counts as in vivo. The following applies: 312 h, evaluated after 13 days, read-out: ECHCG post-emergence activity (100=total damage to plant; 0=no damage to plant); for pest or weed control at 250 g/ha: rate 250 g/ha; for pest or weed control at 1000 g/ha: rate 1000 g/ha. The method, then: as §1
In data set [7] the test system is Setaria faberi (SETFA). The description is as above. The following applies: 312 h, evaluated after 13 days, read-out: SETFA post-emergence activity (100=total damage to plant; 0=no damage to plant); for pest or weed control at 250 g/ha: rate 250 g/ha; for pest or weed control at 1000 g/ha: rate 1000 g/ha. It counts as in vivo. The method, then:
as §1

Data set [8] has as its system Alopecurus myosuroides (ALOMY). The data set is described as above. Type of data set: in vivo. The following applies: 312 h, evaluated after 13 days, read-out: ALOMY post-emergence activity (100=total damage to plant; 0=no damage to plant); for pest or weed control at 250 g/ha: rate 250 g/ha; for pest or weed control at 1000 g/ha: rate 1000 g/ha. The method, then:
as §1

For `CCOC(=O)OC1=C(c2cc(C3CC3)c(C)cc2C)C(=O)NC12CCN(OC)CC2` [Compound P55], the melting point lay within 174 to 176 °C. Moreover, the pest or weed control at 250 g/ha in the data set with Avena fatua (AVEFA) [1] turned out to be 0%. Moreover, the pest or weed control at 250 g/ha in [2] was 40%. In addition, the pest or weed control at 250 g/ha in the data set with Setaria faberi (SETFA) [3] came to 60%. In [4], the pest or weed control at 250 g/ha is 10%. For the same compound, the pest or weed control at 250 g/ha in the data set on Avena fatua (AVEFA) [5] was 60%. For the same compound, the pest or weed control at 250 g/ha in [6] stood at 70%. Besides, the pest or weed control at 250 g/ha in the data set with Setaria faberi (SETFA) [7] turned out to be 80%. The pest or weed control at 250 g/ha in data set [8] is 60%.

`CCOC(=O)OC1=C(c2ccc(Br)cc2Cl)C(=O)NC12CCN(OC)CC2` [Compound P66] displayed a melting point of 199 to 201 °C. The pest or weed control at 250 g/ha with Avena fatua (AVEFA) [1] came to 10%. Also, the pest or weed control at 250 g/ha in [2] is 0%. Also, the pest or weed control at 250 g/ha in the data set with Setaria faberi (SETFA) [3] came out at 10%. Moreover, the pest or weed control at 250 g/ha in [4] was determined as 30%. The pest or weed control at 250 g/ha with Avena fatua (AVEFA) [5] came out at 70%. For the same compound, the pest or weed control at 250 g/ha in data set [6] is 100%. Moreover, the pest or weed control at 250 g/ha in the data set with Setaria faberi (SETFA) [7] was 90%. In [8], the pest or weed control at 250 g/ha was 90%.

On to `CON1CCC2(CC1)NC(=O)C(c1ccc(Br)cc1C)=C2OC(=O)C(C)(C)C` [Compound P69], for which the melting point was in the range of 239 to 240 °C. For the same compound, the pest or weed control at 250 g/ha in the data set on Avena fatua (AVEFA) [1] was determined as 30%. Also, the pest or weed control at 250 g/ha in data set [2] is 90%. For the same compound, in the data set on Setaria faberi (SETFA) [3], the pest or weed control at 250 g/ha came out at 100%. In addition, the pest or weed control at 250 g/ha in [4] is 40%. Further, the pest or weed control at 250 g/ha with Avena fatua (AVEFA) [5] came to 60%. Besides, the pest or weed control at 250 g/ha in data set [6] came out at 90%. In addition, the pest or weed control at 250 g/ha in the data set on Setaria faberi (SETFA) [7] worked out at 90%. Besides, the pest or weed control at 250 g/ha in data set [8] is 90%.

As to `CON1CCC2(CC1)NC(=O)C(c1ccc(Cl)cc1Cl)C2=O` (stereo not drawn) [Compound T2], the melting point was 221 to 223 °C. Also, the pest or weed control at 1000 g/ha in the data set on Avena fatua (AVEFA) [1] stood at 40%. Further, the pest or weed control at 1000 g/ha in data set [2] came out at 0%. Further, the pest or weed control at 1000 g/ha in the data set with Setaria faberi (SETFA) [3] turned out to be 30%. For the same compound, in data set [4], the pest or weed control at 1000 g/ha worked out at 60%. In the data set with Avena fatua (AVEFA) [5], the pest or weed control at 1000 g/ha was 90%. Moreover, the pest or weed control at 1000 g/ha in data set [6] amounted to 100%. Besides, in the data set with Setaria faberi (SETFA) [7], the pest or weed control at 1000 g/ha was found to be 100%. Further, the pest or weed control at 1000 g/ha in [8] came out at 100%.

In turn, `CON1CCC2(CC1)NC(=O)C(c1c(Cl)cccc1Cl)C2=O` (stereo not drawn) [Compound T3] yielded a melting point of 257 to 260 °C. In the data set on Avena fatua (AVEFA) [1], the pest or weed control at 1000 g/ha turned out to be 0%. Further, in data set [2], the pest or weed control at 1000 g/ha was found to be 0%. Further, in the data set on Setaria faberi (SETFA) [3], the pest or weed control at 1000 g/ha was 80%. The pest or weed control at 1000 g/ha in [4] stood at 40%. For the same compound, in the data set with Avena fatua (AVEFA) [5], the pest or weed control at 1000 g/ha came to 0%. For the same compound, the pest or weed control at 1000 g/ha in data set [6] is 0%. Moreover, the pest or weed control at 1000 g/ha in the data set on Setaria faberi (SETFA) [7] was 70%. For the same compound, the pest or weed control at 1000 g/ha in [8] was 60%.

With `CON1CCC2(CC1)NC(=O)C(c1c(C)cc(Br)cc1C)C2=O` (stereo not drawn) [Compound T12], the melting point is 260 to 264 °C. Moreover, in the data set with Avena fatua (AVEFA) [1], the pest or weed control at 1000 g/ha was found to be 80%. Moreover, the pest or weed control at 1000 g/ha in [2] turned out to be 20%. In addition, the pest or weed control at 1000 g/ha in the data set on Setaria faberi (SETFA) [3] turned out to be 90%. Besides, the pest or weed control at 1000 g/ha in data set [4] was determined as 70%. Besides, the pest or weed control at 1000 g/ha in the data set with Avena fatua (AVEFA) [5] came to 90%. Further, the pest or weed control at 1000 g/ha in data set [6] worked out at 80%. The pest or weed control at 1000 g/ha in the data set with Setaria faberi (SETFA) [7] amounted to 90%. Moreover, the pest or weed control at 1000 g/ha in [8] was 80%.

One may read the melting point as the temperature of the solid-liquid transition.
